In the NIST ThermoML archive (doi:10.1021/acs.jced.8b00554):
Numbers after ± are expanded uncertainties.

Test: xn = mol fraction of the nth substance listed
Conditions: Liquid, Vibrating tube method

CCCCCCCCC [nonane] + CCCO
Conditions | mass density [kg/m3]
323.15 K, 12010 kPa, x2 = 0.8941 | 768.14 ± 4.9
323.15 K, 12020 kPa, x2 = 0.1231 | 706.6 ± 4.5
323.15 K, 12020 kPa, x2 = 0.2315 | 710.98 ± 4.6
323.15 K, 12020 kPa, x2 = 0.4272 | 720.79 ± 4.6
323.15 K, 13000 kPa, x2 = 0.1231 | 707.48 ± 4.5
323.15 K, 13000 kPa, x2 = 0.4272 | 721.68 ± 4.6
323.15 K, 13000 kPa, x2 = 0.7021 | 743.81 ± 4.8
323.15 K, 13010 kPa, x2 = 0.2315 | 711.85 ± 4.6
323.15 K, 13010 kPa, x2 = 0.8941 | 768.99 ± 4.9
323.15 K, 13020 kPa, x2 = 0.3229 | 715.95 ± 4.6
323.15 K, 14000 kPa, x2 = 0.1231 | 708.35 ± 4.5
323.15 K, 14000 kPa, x2 = 0.2315 | 712.73 ± 4.6
323.15 K, 14000 kPa, x2 = 0.8941 | 769.85 ± 4.9
323.15 K, 14010 kPa, x2 = 0.4272 | 722.55 ± 4.6
323.15 K, 14020 kPa, x2 = 0.3229 | 716.82 ± 4.6
323.15 K, 14020 kPa, x2 = 0.7021 | 744.68 ± 4.8
323.15 K, 15000 kPa, x2 = 0.1231 | 709.2 ± 4.5
323.15 K, 15000 kPa, x2 = 0.3229 | 717.67 ± 4.6
323.15 K, 15010 kPa, x2 = 0.7021 | 745.54 ± 4.8
323.15 K, 15010 kPa, x2 = 0.8941 | 770.68 ± 4.9
323.15 K, 15020 kPa, x2 = 0.2315 | 713.58 ± 4.6
323.15 K, 15020 kPa, x2 = 0.4272 | 723.42 ± 4.6
323.15 K, 16010 kPa, x2 = 0.1231 | 710.02 ± 4.5
323.15 K, 16010 kPa, x2 = 0.8941 | 771.51 ± 4.9
323.15 K, 16020 kPa, x2 = 0.2315 | 714.42 ± 4.6
323.15 K, 16020 kPa, x2 = 0.3229 | 718.52 ± 4.6
323.15 K, 16020 kPa, x2 = 0.4272 | 724.26 ± 4.6
323.15 K, 16020 kPa, x2 = 0.7021 | 746.38 ± 4.8
323.15 K, 17000 kPa, x2 = 0.2315 | 715.27 ± 4.6
323.15 K, 17000 kPa, x2 = 0.3229 | 719.35 ± 4.6
323.15 K, 17000 kPa, x2 = 0.8941 | 772.34 ± 5
323.15 K, 17010 kPa, x2 = 0.4272 | 725.1 ± 4.7
323.15 K, 17020 kPa, x2 = 0.1231 | 710.86 ± 4.6
323.15 K, 17020 kPa, x2 = 0.7021 | 747.22 ± 4.8
323.15 K, 18000 kPa, x2 = 0.1231 | 711.67 ± 4.6
323.15 K, 18010 kPa, x2 = 0.2315 | 716.08 ± 4.6
323.15 K, 18010 kPa, x2 = 0.3229 | 720.19 ± 4.6
323.15 K, 18010 kPa, x2 = 0.4272 | 725.91 ± 4.7
323.15 K, 18010 kPa, x2 = 0.7021 | 748.04 ± 4.8
323.15 K, 18010 kPa, x2 = 0.8941 | 773.16 ± 5
323.15 K, 19010 kPa, x2 = 0.1231 | 712.48 ± 4.6
323.15 K, 19010 kPa, x2 = 0.2315 | 716.87 ± 4.6
323.15 K, 19010 kPa, x2 = 0.3229 | 720.99 ± 4.6
323.15 K, 19010 kPa, x2 = 0.4272 | 726.74 ± 4.7
323.15 K, 19020 kPa, x2 = 0.7021 | 748.85 ± 4.8
323.15 K, 19020 kPa, x2 = 0.8941 | 773.95 ± 5
323.15 K, 20000 kPa, x2 = 0.4272 | 727.54 ± 4.7
323.15 K, 20010 kPa, x2 = 0.2315 | 717.66 ± 4.6
323.15 K, 20010 kPa, x2 = 0.8941 | 774.74 ± 5
323.15 K, 20020 kPa, x2 = 0.1231 | 713.24 ± 4.6
323.15 K, 20020 kPa, x2 = 0.3229 | 721.77 ± 4.6
323.15 K, 20020 kPa, x2 = 0.7021 | 749.67 ± 4.8
333.15 K, 100 kPa, x2 = 0.1231 | 686.98 ± 4.4
333.15 K, 100 kPa, x2 = 0.2315 | 690.52 ± 4.4
333.15 K, 100 kPa, x2 = 0.3229 | 694.34 ± 4.5
333.15 K, 100 kPa, x2 = 0.4272 | 699.84 ± 4.5
333.15 K, 100 kPa, x2 = 0.7021 | 721.88 ± 4.6
333.15 K, 100 kPa, x2 = 0.8941 | 747.76 ± 4.8
333.15 K, 1000 kPa, x2 = 0.8941 | 748.19 ± 4.8
333.15 K, 1010 kPa, x2 = 0.2315 | 691.2 ± 4.4
333.15 K, 1010 kPa, x2 = 0.3229 | 694.86 ± 4.5
333.15 K, 1010 kPa, x2 = 0.4272 | 700.34 ± 4.5
333.15 K, 1010 kPa, x2 = 0.7021 | 722.39 ± 4.6
333.15 K, 1020 kPa, x2 = 0.1231 | 687.08 ± 4.4
333.15 K, 2000 kPa, x2 = 0.3229 | 695.92 ± 4.5
333.15 K, 2000 kPa, x2 = 0.4272 | 701.38 ± 4.5
333.15 K, 2010 kPa, x2 = 0.1231 | 688.14 ± 4.4
333.15 K, 2010 kPa, x2 = 0.2315 | 692.25 ± 4.4
333.15 K, 2010 kPa, x2 = 0.8941 | 749.18 ± 4.8
333.15 K, 2020 kPa, x2 = 0.7021 | 723.42 ± 4.6
333.15 K, 3000 kPa, x2 = 0.1231 | 689.17 ± 4.4
333.15 K, 3000 kPa, x2 = 0.2315 | 693.28 ± 4.4
333.15 K, 3010 kPa, x2 = 0.4272 | 702.44 ± 4.5
333.15 K, 3010 kPa, x2 = 0.8941 | 750.17 ± 4.8
333.15 K, 3020 kPa, x2 = 0.3229 | 696.96 ± 4.5
333.15 K, 3020 kPa, x2 = 0.7021 | 724.44 ± 4.6
333.15 K, 4000 kPa, x2 = 0.7021 | 725.48 ± 4.7
333.15 K, 4010 kPa, x2 = 0.1231 | 690.19 ± 4.4
333.15 K, 4010 kPa, x2 = 0.2315 | 694.31 ± 4.5
333.15 K, 4010 kPa, x2 = 0.4272 | 703.48 ± 4.5
333.15 K, 4020 kPa, x2 = 0.3229 | 697.98 ± 4.5
333.15 K, 4020 kPa, x2 = 0.8941 | 751.17 ± 4.8
333.15 K, 5010 kPa, x2 = 0.2315 | 695.33 ± 4.5
333.15 K, 5010 kPa, x2 = 0.3229 | 699.01 ± 4.5
333.15 K, 5010 kPa, x2 = 0.4272 | 704.5 ± 4.5
333.15 K, 5010 kPa, x2 = 0.8941 | 752.16 ± 4.8
333.15 K, 5020 kPa, x2 = 0.1231 | 691.22 ± 4.4
333.15 K, 5020 kPa, x2 = 0.7021 | 726.49 ± 4.7
333.15 K, 6000 kPa, x2 = 0.7021 | 727.51 ± 4.7
333.15 K, 6000 kPa, x2 = 0.8941 | 753.15 ± 4.8
333.15 K, 6010 kPa, x2 = 0.2315 | 696.33 ± 4.5
333.15 K, 6010 kPa, x2 = 0.4272 | 705.51 ± 4.5
